Assays:
Bradykinin-1 receptor [1] = target: T1, Bradykinin-1 receptor (Homo sapiens (Human), UniProt P46663); test: Calcium Mobilization Assay; type: cell-based; conditions: GeneBLAzer Bradykinin (B1)-NFAT-bla CHO-K1 cells; antagonist activity, FLIPR; read-out: Ca mobilization IC50
Protocol: Calcium Mobilization Assay
GeneBLAzer® Bradykinin (B1)-NFAT-bla CHO-K1 cells (from Invitrogen) stably overexpressing the human bradykinin 1 receptor were cultured in DMEM (high glucose) supplemented with 10% dialysed FBS, 1% NEAA (non essential amino acids) 1% penicillin/streptomycin, 1% G418 and 0.1 mg/ml zeocin.
For the assay cells were grown overnight in 384-well black clear flat bottom polystyrene plates (Costar) at 37° C. at 5% CO2. After washing with DMEM, 20 mM Hepes, 2.5 mM probenecid, 0.1% BSA (DMEM assay buffer) cells were loaded with 4 μM Fluo-4 in the same DMEM assay buffer for 2 hours at 30° C. Excess dye was removed and cells were washed with DMEM assay buffer. 384-well compound plates were prepared with DMEM assay buffer/0.5% DMSO with or without various concentrations of test compounds. Usually compounds were tested for agonist and antagonist activity.
Test compounds were added to the assay plate and agonist activity was monitored as fluorescence for 80 seconds with a FLIPR (488 nm excitation; 510-570 nm emission; Molecular Devices). […] Increases in intracellular calcium are reported as maximum fluorescence after agonist exposure minus basal fluorescence before exposure. Antagonist activity is indicated as inhibitor concentration required for 50% inhibition of specific calcium increases.

Bradykinin-1 receptor [2] = target: T1, Bradykinin-1 receptor; test: Receptor Binding Assay; conditions: membranes from CHO-K1 cells overexpressing Bradykinin-1 receptor; 6 nM [3H]Kallidin (Des Arg10, Leu9); read-out: B1R Binding Ki
Protocol: Binding assays were done with membranes from CHO-K1 cells overexpressing Bradykinin-1 receptor.
For binding, Bradykinin-1 receptor antagonist compounds were added in various concentrations in 50 mM Tris pH 7.4, 5 mM MgCl2 together with 6 nM Kallidin (Des Arg^10, Leu^9), [3,4-Prolyl-3,4-^3H(N)] (PerkinElmer, 1.85-4.44 TBq/mmol) to 40 μg membrane protein containing approximately 1 fmol Bradykinin-1 receptor and incubated for 15 min at 27° C. To determine non-specific binding 10 μM Lys-(Des-Arg^9)-Bradykinin (Bachem) was added. Membranes were harvested through GF/B (glass fiber filter; PerkinElmer) plates, equilibrated with 0.5% polyethylenimine, air dried at 50° C. for 2 hr. Radioactivity was determined by counting in a topcounter (NXT Packard). Specific binding was defined as total binding minus nonspecific binding and typically represents about 90-95% of the total binding. Antagonist activity is expressed as Ki: inhibitor concentration required for 50% inhibition of specific binding corrected for the concentration of the radioligand.

T1 sequence (P46663 whole entry): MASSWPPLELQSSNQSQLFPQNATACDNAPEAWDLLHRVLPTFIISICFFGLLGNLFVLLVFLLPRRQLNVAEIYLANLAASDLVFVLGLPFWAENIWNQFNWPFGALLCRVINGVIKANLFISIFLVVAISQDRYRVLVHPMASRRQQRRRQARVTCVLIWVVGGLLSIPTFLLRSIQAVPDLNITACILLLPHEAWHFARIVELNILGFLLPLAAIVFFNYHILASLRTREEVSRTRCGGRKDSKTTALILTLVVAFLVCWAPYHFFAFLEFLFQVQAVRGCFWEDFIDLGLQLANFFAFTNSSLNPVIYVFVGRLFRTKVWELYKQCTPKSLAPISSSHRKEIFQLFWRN

| SMILES | IC50 (Bradykinin-1 receptor [1]) [nM] | Ki (Bradykinin-1 receptor [2]) [nM] |
| --- | --- | --- |
| C[C@@H](NC(=O)C1(NC(=O)c2ccno2)COC1)c1ncc(-c2cc(Cl)cc(Cl)c2OCC(F)F)cc1F [Example 10, Isoxazole-5-carboxylic acid [3-((R)-1-{5-[3,5-dichloro-2-(2,2-difluoro-ethoxy)-phenyl]-3-fluoro-pyridin-2-yl}-ethylcarbamoyl)-oxetan-3-yl]-amide] | 3.3 | 4.7 |
| C[C@@H](NC(=O)C1(NC(=O)c2cncnc2)COC1)c1ncc(-c2cc(Cl)cc(Cl)c2OCC(F)F)cc1F [Example 11, Pyrimidine-5-carboxylic acid [3-((R)-1-{5-[3,5-dichloro-2-(2,2-difluoro-ethoxy)-phenyl]-3-fluoro-pyridin-2-yl}-ethylcarbamoyl)-oxetan-3-yl]-amide] | 0.8 | 2.6 |
| COC(=O)c1c(Cl)cccc1-c1ccc([C@@H](C)NC(=O)C2(NC(=O)c3ccno3)COC2)c(F)c1 [Example 12, 3-Chloro-3′-fluoro-4′-[(R)-1-({3-[(isoxazole-5-carbonyl)-amino]-oxetane-3-carbonyl}-amino)-ethyl]-biphenyl-2-carboxylic acid methyl ester] | 0.1 | 0.8 |
| COC(=O)c1c(Cl)cccc1-c1ccc([C@@H](C)NC(=O)C2(NC(=O)c3cc(C)no3)COC2)c(F)c1 [Example 13, 3-Chloro-3′-fluoro-4′-[(R)-1-({3-[(3-methyl-isoxazole-5-carbonyl)-amino]-oxetane-3-carbonyl}-amino)-ethyl]-biphenyl-2-carboxylic acid methyl ester] | 0.04 | 1 |
| COc1cc(C(=O)NC2(C(=O)N[C@H](C)c3ncc(-c4cc(Cl)cc(F)c4-c4noc(C)n4)cc3F)COC2)on1 [Example 14, 3-Methoxy-isoxazole-5-carboxylic acid [3-((R)-1-{5-[5-chloro-3-fluoro-2-(5-methyl-[1,2,4]oxadiazol-3-yl)-phenyl]-3-fluoro-pyridin-2-yl}-ethylcarbamoyl)-oxetan-3-yl]-amide] | 0.2 | 1.4 |
| COc1ncc(C(=O)NC2(C(=O)N[C@H](C)c3ncc(-c4cc(Cl)cc(F)c4-c4noc(C)n4)cc3F)COC2)cn1 [Example 15, 2-Methoxy-pyrimidine-5-carboxylic acid [3-((R)-1-{5-[5-chloro-3-fluoro-2-(5-methyl-[1,2,4]oxadiazol-3-yl)-phenyl]-3-fluoro-pyridin-2-yl}-ethylcarbamoyl)-oxetan-3-yl]-amide] | 0.1 | 1.1 |
| Cc1nc(-c2c(F)cc(Cl)cc2-c2cnc([C@@H](C)NC(=O)C3(NC(=O)c4snnc4C)COC3)c(F)c2)no1 [Example 16, 4-Methyl-[1,2,3]thiadiazole-5-carboxylic acid [3-((R)-1-{5-[5-chloro-3-fluoro-2-(5-methyl-[1,2,4]oxadiazol-3-yl)-phenyl]-3-fluoro-pyridin-2-yl}-ethylcarbamoyl)-oxetan-3-yl]-amide] | 0.4 | 1.6 |
| COCC(=O)NC1(C(=O)N[C@H](C)c2ncc(-c3cc(Cl)cc(F)c3-c3noc(C)n3)cc2F)COC1 [Example 17, 3-(2-Methoxy-acetylamino)-oxetane-3-carboxylic acid ((R)-1-{5-[5-chloro-3-fluoro-2-(5-methyl-[1,2,4]oxadiazol-3-yl)-phenyl]-3-fluoro-pyridin-2-yl}-ethyl)-amide] | 26.6 | 25 |
| COc1cc(C(=O)NC2(C(=O)N[C@H](C)c3ncc(-c4cc(Cl)cc(Cl)c4OCC(F)F)cc3F)COC2)on1 [Example 18, 3-Methoxy-isoxazole-5-carboxylic acid [3-((R)-1-{5-[3,5-dichloro-2-(2,2-difluoro-ethoxy)-phenyl]-3-fluoro-pyridin-2-yl}-ethylcarbamoyl)-oxetan-3-yl]-amide] | 1.1 | 3 |
| Cc1nc(-c2c(F)cc(Cl)cc2-c2cnc([C@@H](C)NC(=O)C3(NC(=O)c4nnc(C)o4)COC3)c(F)c2)no1 [Example 19, 5-Methyl-[1,3,4]oxadiazole-2-carboxylic acid [3-((R)-1-{5-[5-chloro-3-fluoro-2-(5-methyl-[1,2,4]oxadiazol-3-yl)-phenyl]-3-fluoro-pyridin-2-yl}-ethylcarbamoyl)-oxetan-3-yl]-amide] | 1.2 | 5.1 |
| Cc1cc(C(=O)NC2(C(=O)N[C@H](C)c3ncc(-c4cc(Cl)cc(F)c4-c4nnn(C)n4)cc3F)COC2)on1 [Example 20, 3-Methyl-isoxazole-5-carboxylic acid [3-((R)-1-{5-[5-chloro-3-fluoro-2-(2-methyl-2H-tetrazol-5-yl)-phenyl]-3-fluoro-pyridin-2-yl}-ethylcarbamoyl)-oxetan-3-yl]-amide] | 0.4 | 1.6 |
| C[C@@H](NC(=O)C1(NC(=O)C(F)(F)F)COC1)c1ncc(-c2cc(Cl)cc(F)c2-c2nnn(C)n2)cc1F [Example 21, 3-(2,2,2-Trifluoro-acetylamino)-oxetane-3-carboxylic acid ((R)-1-{5-[5-chloro-3-fluoro-2-(2-methyl-2H-tetrazol-5-yl)-phenyl]-3-fluoro-pyridin-2-yl}-ethyl)-amide] | 1 | 4.3 |
| C[C@@H](NC(=O)C1(NC(=O)C(F)(F)F)COC1)c1ccc(-c2cc(Cl)cc(F)c2-c2nnn(C)n2)cc1F [Example 22, 3-(2,2,2-Trifluoro-acetylamino)-oxetane-3-carboxylic acid {(R)-1-[5′-chloro-3,3′-difluoro-2′-(2-methyl-2H-tetrazol-5-yl)-biphenyl-4-yl]-ethyl}-amide] | 0.5 | 1.7 |
| Cc1cc(C(=O)NC2(C(=O)N[C@H](C)c3ccc(-c4cc(Cl)cc(F)c4-c4nnn(C)n4)cc3F)COC2)on1 [Example 23, 3-Methyl-isoxazole-5-carboxylic acid (3-{(R)-1-[5′-chloro-3,3′-difluoro-2′-(2-methyl-2H-tetrazol-5-yl)-biphenyl-4-yl]-ethylcarbamoyl}-oxetan-3-yl)-amide] | 0.1 | 1 |
| Cc1cc(C(=O)NC2(C(=O)N[C@H](C)c3ccc(-c4cc(Cl)cc(F)c4-c4noc(C)n4)cc3F)COC2)on1 [Example 24, 3-Methyl-isoxazole-5-carboxylic acid (3-{(R)-1-[5′-chloro-3,3′-difluoro-2′-(5-methyl-[1,2,4]oxadiazol-3-yl)-biphenyl-4-yl]-ethylcarbamoyl}-oxetan-3-yl)-amide] | 0.1 | 1.2 |
| Cc1nc(-c2c(F)cc(Cl)cc2-c2cnc([C@@H](C)NC(=O)C3(NC(=O)c4ccnnc4)COC3)c(F)c2)no1 [Example 25, Pyridazine-4-carboxylic acid [3-((R)-1-{5-[5-chloro-3-fluoro-2-(5-methyl-[1,2,4]oxadiazol-3-yl)-phenyl]-3-fluoro-pyridin-2-yl}-ethylcarbamoyl)-oxetan-3-yl]-amide] | 0.4 | 1 |
| Cc1nc(-c2c(F)cc(Cl)cc2-c2cnc([C@@H](C)NC(=O)C3(NC(=O)c4nccn4C)COC3)c(F)c2)no1 [Example 26, 1-Methyl-1H-imidazole-2-carboxylic acid [3-((R)-1-{5-[5-chloro-3-fluoro-2-(5-methyl-[1,2,4]oxadiazol-3-yl)-phenyl]-3-fluoro-pyridin-2-yl}-ethylcarbamoyl)-oxetan-3-yl]-amide] | 490 | 503 |
| Cc1nc(-c2c(F)cc(Cl)cc2-c2cnc([C@@H](C)NC(=O)C3(NC(=O)c4cn(C)cn4)COC3)c(F)c2)no1 [Example 27, 1-Methyl-1H-imidazole-4-carboxylic acid [3-((R)-1-{5-[5-chloro-3-fluoro-2-(5-methyl-[1,2,4]oxadiazol-3-yl)-phenyl]-3-fluoro-pyridin-2-yl}-ethylcarbamoyl)-oxetan-3-yl]-amide] | 107 | 82.6 |
| Cc1nc(-c2c(F)cc(Cl)cc2-c2cnc([C@@H](C)NC(=O)C3(NC(=O)c4cncc(N)c4)COC3)c(F)c2)no1 [Example 28, 5-Amino-N-[3-((R)-1-{5-[5-chloro-3-fluoro-2-(5-methyl-[1,2,4]oxadiazol-3-yl)-phenyl]-3-fluoro-pyridin-2-yl}-ethylcarbamoyl)-oxetan-3-yl]-nicotinamide] | 0.1 | 1.4 |
| Cc1nc(-c2c(F)cc(Cl)cc2-c2cnc([C@@H](C)NC(=O)C3(NC(=O)c4cccnn4)COC3)c(F)c2)no1 [Example 29, Pyridazine-3-carboxylic acid [3-((R)-1-{5-[5-chloro-3-fluoro-2-(5-methyl-[1,2,4]oxadiazol-3-yl)-phenyl]-3-fluoro-pyridin-2-yl}-ethylcarbamoyl)-oxetan-3-yl]-amide] | 9.4 | 14.1 |

Reference: patent publication US8912221B2, “Biaryl amide derivatives” (Hoffmann-La Roche Inc., priority 2010, dated 2014)
